# Reference: US20030032636A1, “Combination of a serotonin reuptake inhibitor and a 5-HT2C antagonist, inverse agonist or partial agonist” (H. Lundbeck A/S, priority 1999, published 2003)
# Key:
# [1] = biological target: T1, 5-HT2C receptor (Rattus norvegicus, UniProt P08909); assay: 5-HT2C binding (3H-Mesulergine, SR-3T3 cells); details: 0.5 nM 3H-Mesulergine
# T1 construct: host or cells: SR-3T3 cells
# T1 sequence (P08909 33-460): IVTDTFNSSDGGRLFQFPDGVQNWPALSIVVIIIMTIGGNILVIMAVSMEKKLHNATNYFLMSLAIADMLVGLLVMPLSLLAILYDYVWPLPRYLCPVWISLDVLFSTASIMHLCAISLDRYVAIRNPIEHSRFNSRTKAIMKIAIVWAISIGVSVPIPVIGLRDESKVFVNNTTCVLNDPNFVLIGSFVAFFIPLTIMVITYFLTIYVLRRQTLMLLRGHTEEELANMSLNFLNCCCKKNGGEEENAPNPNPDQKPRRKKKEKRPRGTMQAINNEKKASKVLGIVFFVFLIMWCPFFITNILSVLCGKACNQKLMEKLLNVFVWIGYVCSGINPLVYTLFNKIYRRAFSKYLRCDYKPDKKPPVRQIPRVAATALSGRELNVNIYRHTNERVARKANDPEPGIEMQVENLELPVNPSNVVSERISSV
# Protocol: The cell suspension is centrifuged and the pellet resuspended in 50 mM Tris, HCl, pH 7.7 and stored at −80° C. For experimental use, the frozen cell pellet is thawed and homogenised with an Ultra Turrax for 10-15 seconds. 1.5 mg cell preparation is incubated with 0.5 nM 3H-Mesulergine for 60 minutes at 37° C. Incubation is terminated by rapid filtration through Filtermat B filters and bound radioactivity is determined in a Tricarb scintillation counter.
# [2] = system: 5-HT levels in rat ventral hippocampus; assay: Microdialysis, ventral hippocampus 5-HT levels; format: in vivo; details: for enhancement of the effect of citalopram on ventral hippocampal 5-HT levels: 1 μmol/kg simultaneous with 10 μmol/kg citalopram; for serotonin levels as measured in microdialysis experiments: administered alone (summary statement); for effect on rat ventral hippocampal 5-HT levels: 1 μmol/kg subcutaneous; for level of extracellular serotonin: in combination with SSRIs (summary statement)
# Description: Male albino rats of a Wistar-derived strain (285-320 g; Harlan, Zeist, The Netherlands) were used for the experiments. The rats were housed in plastic cages (35×35×40 cm), and had free access to food and water. The experiments are concordant with the declarations of Helsinki and were approved by the Animal Care Committee of the Faculty of Mathematics and Natural Science of the University of Groningen.
# The following drugs were used: Citalopram hydrobromide and internal standard (kindly donated by Lundbeck (Copenhagen, Denmark), courtesy Dr. Sanchez), ritanserin and ketanserin tartrate (RBI, Natick, USA). […] All drugs were administered in a volume of 1 mL per kg.
# Microdialysis experiments were performed using home made I-shaped probes, made of polyacrylonitrile I sodium methyl sulphonate copolymer dialysis fiber (i.d. 220 μm, o.d. […], AN 69, Hospal, Italy). The exposed length of the membranes was 4 mm. […] Lidocaine-HCl, 10% (m/v) was used for local anaesthesia. Rats were placed in a stereotaxic frame (Kopf, USA), and probes were inserted into the ventral hippocampus (coordinates: IA: +3.7 mm, lateral: +4.8 mm, ventral: −8.0 mm from the dura mater, Paxinos and Watson, 1982) and secured with dental cement.
# Probes were perfused with artificial CSF containing 147 mM NaCl, 3.0 mM KCl, 1.2 mM CaCl2, and 1.2 mM MgCl2, at a flow-rate of 1.5 μL/min (Harvard apparatus, South Natick, Ma., USA). Samples were collected on-line in a 20 μL loop and injected automatically onto the column every 15 min.
# Serotonin analysis: 5-HT was analysed using HPLC with electrochemical detection. The HPLC pump (Shimadzu LC-10 AD liquid chromatograph) was connected to a reversed phase column (phenomenex hypersil 3: 3 μm, 100×2.0 mm, C18, Bester, Amstelveen, the Netherlands) followed by an electrochemical detector (Antec Leyden, Leiden, the Netherlands), working at a potential setting of 500 mV vs. Ag/AgCl reference. The mobile phase consisted of 5 g/L di-ammoniumsulfate, 500 mg/L ethylene diamino tetra acetic acid (EDTA), 50 mg/L heptane sulphonic acid and 30 μl/L of triethylamine, at a pH of 4.65 and 4.5% (w/w) methanol and water. Flow-rate of the mobile phase was 0.4 ml/min. The detection limit was 0.5 fmol 5-HT per 20 μL sample (signal to noise ratio 3).
# Level of significance level was set at p<0. 05.
# [3] = system: morphine-induced DA release in rat nucleus accumbens; details: cited from earlier work
# [4] = system: levels of DA, NE and 5-HT in rat frontal cortex; details: cited from earlier work
# [5] = in vivo; details: rat, sc
# Description: In the pharmacokinetic experiments, blood was drawn through a canula made of silicon tubing, which was inserted into the right jugular vein for 3.8 cm. The tubing was transferred subcutaneously to the scull of the rat, and a stainless steel inlet was connected to the tubing. The inlet was mounted on the skull with dental cement and surgical screws. After insertion, canulas were filled with a PVP solution (55% polyvinylpyrrolidon in 500 IE/mL heparin) in saline to prevent blood clotting.
# Pharmacokinetic experiments: Rats were allowed to recover for at least 24 h. […]
# Citalopram analysis: Citalopram was measured according to Øyehaug et al. (1982), with minor modifications. […]
# With the experiments in which 5 mL plasma was obtained via the vacutainer, a similar protocol was used, but the plasma sample was now extracted three times with 10 mL of ether. An HPLC/auto-injector (1084B Liquid Chromatograph, Hewlett-Packard) was used, in combination with a fluorescence detector (470 Scanning Fluorescence detector, Waters, England) operating at an absorption wavelength of 240 nm, an emission wavelength of 296 nm, and a slit-width of 12 nm. […]
# Ketanserin analysis: Ketanserin was measured using liquid-liquid extraction, followed by reversed phase chromatography in conjunction with fluorescence detection. […]
# [6] = system: prefrontal cortex 5-HT levels; assay: Microdialysis, prefrontal cortex 5-HT levels; format: in vivo, rat
# [7] = system: mouse forced swimming test; details: prior administration; ritanserin 4 mg/kg i.p., ketanserin 8 mg/kg i.p.; cited from earlier work
# [8] = combined with fluoxetine; cited from earlier work
# [9] = system: 5-HT2C receptors; details: cited from earlier work
# [10] = system: NE release in rat hippocampus; details: cited from earlier work
compound,measurement,setting,value
"Cc1ccc2c(c1)c(-c1ccc(F)cc1)c(C)n2C1CCN(CCN2CCNC2=O)CC1 [Lu 29066, 2,5-dimethyl-3-(4-fluorophenyl)-1-[1-[2-(imidazolidin-2-on-1-yl)ethyl]-piperidin-4-yl]-1H-indole]",Ki,[1],0.0069 µM
same,enhancement of the effect of citalopram on ventral hippocampal 5-HT levels,[2],significant enhancement of the effect of citalopram
same,serotonin levels as measured in microdialysis experiments,[2],no increase
same,effect on rat ventral hippocampal 5-HT levels,[2]; alone,had no effect
same,level of extracellular serotonin,[2],synergistically act to increase
Clc1cncc(N2CCNCC2)n1 [MK-212],morphine-induced DA release,[3],inhibited
COc1cc(OC)c(C(=O)CCCCN2CCC3(CC2)NC(=O)NC3=O)cc1NS(=O)(=O)c1ccc(C(F)(F)F)cc1 [RS 102221],Ki,[1],0.00056 µM
same,enhancement of the effect of citalopram on ventral hippocampal 5-HT levels,[2],significant enhancement of the effect of citalopram
same,serotonin levels as measured in microdialysis experiments,[2],no increase
same,effect on rat ventral hippocampal 5-HT levels,[2]; alone,had no effect
same,level of extracellular serotonin,[2],synergistically act to increase
C[C@H](N)Cn1ccc2cc(F)c(Cl)cc21 [Ro 60-0175],levels of both DA and NE,[4],suppressed
same,levels of serotonin (5-HT),[4],without modifying
Cc1cc2c(cc1Cl)N(C(=O)Nc1ccc(Oc3cccnc3C)nc1)CC2 [SB-242084],levels of both DA and NE,[4],increased
same,levels of serotonin (5-HT),[4],without modifying
CN(C)CCCC1(c2ccc(F)cc2)OCc2cc(C#N)ccc21 (centres unmarked) [citalopram],half-life,[5]; 10 umol/kg,~2 h
O=C1NCCN1CCN1CCN([C@@H]2C[C@@H](c3ccc(F)cc3)c3ccccc32)CC1 [irindalone],Ki,[1],0.019 µM
O=C(c1ccc(F)cc1)C1CCN(CCn2c(=O)[nH]c3ccccc3c2=O)CC1 [ketanserin],Ki,[1],0.014 µM
same,augmentation of the effect of citalopram on ventral hippocampal 5-HT levels,[2]; 1 nmol/kg co-administered with 10 μmol/kg citalopram,did not augment the effect of citalopram
same,augmentation of the effect of citalopram on ventral hippocampal 5-HT levels,[2]; 10 nmol/kg co-administered with 10 μmol/kg citalopram,significantly enhanced the effect of citalopram
same,augmentation of the effect of citalopram on ventral hippocampal 5-HT levels,[2]; 100 nmol/kg co-administered with 10 μmol/kg citalopram,significantly enhanced the effect of citalopram
same,enhancement of the effect of fluoxetine on ventral hippocampal 5-HT levels,[2]; 100 nmol/kg simultaneous with 5 mg/kg fluoxetine,significant enhancement of the effect of fluoxetine
same,serotonin levels as measured in microdialysis experiments,[2],no increase
same,effect on ventral hippocampal 5-HT levels,"[2]; alone, 100 nmol/kg subcutaneous",had no effect
same,"augmentation of the SSRI induced increase in 5-HT levels, ventral hippocampus","[2]; different doses, simultaneous with 10 μmol/kg citalopram",dose dependent augmentation
same,level of extracellular serotonin,[2],synergistically act to increase
same,augmentation of the citalopram induced increase in cortical 5-HT levels,[6]; 1 nmol/kg co-administered with citalopram,did not augment
same,augmentation of the citalopram induced increase in cortical 5-HT levels,"[6]; 10 nmol/kg co-administered with citalopram, effect did not reach significance",transiently enhanced the effect of citalopram
same,augmentation of the citalopram induced increase in cortical 5-HT levels,[6]; 100 nmol/kg simultaneous with citalopram,significant enhancement of the effect of citalopram
same,effect on prefrontal cortex 5-HT levels,"[6]; alone, dose not stated",did not show any effect
same,potentiation of the effects of imipramine and desipramine (16 mg/kg i.p.),[7],potentiated
same,half-life,[5]; 100 nmol/kg,~1.5 h
CN1CCN2c3ccccc3Cc3ccccc3C2C1 (centres unmarked) [mianserin],efficacy of fluoxetine in the treatment of treatment resistant patients,[8],augment the efficacy of fluoxetine
same,latency of onset of antidepressive effect,[8],may shorten the latency of onset
CCc1nn(CCCN2CCN(c3cccc(Cl)c3)CC2)c(=O)n1CCOc1ccccc1 [nefazodone],Ki,[1],0.033 µM
Fc1ccc([C@@H]2CCNC[C@H]2COc2ccc3c(c2)OCO3)cc1 [paroxetine],effect of chronic administration on 5-HT2C receptors,[9],functional desensitisation
Cc1nc2sccn2c(=O)c1CCN1CCC(=C(c2ccc(F)cc2)c2ccc(F)cc2)CC1 [ritanserin],augmentation of the effect of citalopram on ventral hippocampal 5-HT levels,[2]; 10 μmol/kg i.p. given 60 minutes prior to 10 μmol/kg s.c. citalopram,augmented the effect of citalopram significantly
same,effect on 5-HT levels in rat ventral hippocampus,"[2]; alone, 10 μmol/kg intraperitoneal",did not have any effect
same,level of extracellular serotonin,[2],synergistically act to increase
same,quipazine-induced decrease of NE release,[10],antagonised
same,potentiation of the effects of imipramine and desipramine (16 mg/kg i.p.),[7],potentiated
